Numbers after ± are expanded uncertainties.
Assay: molar heat capacity at constant pressure; xn = mol fraction of the nth substance listed
Conditions: 101.3 kPa, Liquid, Small sample (50 mg) DSC

CNCCN(C)C [N,N,N'-trimethylethylenediamine] + O
molar heat capacity at constant pressure [J/K/mol]
Conditions	x1 = 0.1	x1 = 0.3	x1 = 0.5	x1 = 0.7	x1 = 0.9	x1 = 1
303.2 K	105.2 ± 4.3	151 ± 5.4	188.5 ± 6.5	217.4 ± 7.4	245.2 ± 8.2	258.3 ± 8.6
308.2 K	105.5 ± 4.3	152.4 ± 5.5	190.1 ± 6.5	219.1 ± 7.4	246.8 ± 8.3	260 ± 8.6
313.2 K	106.1 ± 4.4	154 ± 5.5	192.1 ± 6.6	221.2 ± 7.5	249.3 ± 8.4	262.7 ± 8.7
318.2 K	106.5 ± 4.4	155.6 ± 5.6	193.9 ± 6.7	223.1 ± 7.5	251.7 ± 8.5	265.3 ± 8.8
323.2 K	107.3 ± 4.5	157.8 ± 5.7	196.1 ± 6.7	226 ± 7.6	255.5 ± 8.6	269.2 ± 8.9
328.2 K	107.6 ± 4.5	159.5 ± 5.8	198.2 ± 6.8	228.5 ± 7.7	258.7 ± 8.7	272.7 ± 9
333.2 K	108.1 ± 4.6	161.4 ± 5.8	200.2 ± 6.9	231 ± 7.8	261.8 ± 8.8	276 ± 9.2
338.2 K	108.5 ± 4.6	162.7 ± 5.9	201.9 ± 6.9	233.3 ± 7.9	264.4 ± 8.9	278.9 ± 9.3
343.2 K	109 ± 4.6	163.8 ± 5.9	203.3 ± 7	235.3 ± 8	267.3 ± 9	281.3 ± 9.3
348.2 K	109.4 ± 4.7	164.8 ± 6	204.4 ± 7	237.5 ± 8	270.2 ± 9.1	283.4 ± 9.4
353.2 K	110.3 ± 4.7	166.2 ± 6	206.3 ± 7.1	239.8 ± 8.1	273.1 ± 9.2	286.6 ± 9.5
